Measured values taken from patent US20250296953A1, “3,4-THIAZOLO-STEROIDS AND METHODS OF MAKING AND USING THE SAME” (Arkansas State University - Jonesboro, priority 2018, published 2025).

Assays:
SF-539 = assay: NCI 60 one dose screen; assay type: cell-based, human; conditions: one dose; CNS Cancer; SF-539
SR = assay: NCI 60 five dose screen; conditions: Homo sapiens, SR
SK-MEL-25 = assay: Melanoma cytotoxicity assay (resazurin); assay type: cell-based; conditions: SK-MEL-25 melanoma cells, 24 hours with compound, resazurin; concentration not given
Method in brief: (§1)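 Following 24 h of compound treatment (triplicates, 37° C, 5% CO2) of cells seeded one day earlier at about 4000 per well, viability was gauged with resazurin. IC50 values derive from sigmoidal concentration–viability curves.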

SK-MEL-28 = assay: Melanoma cytotoxicity assay (resazurin); assay type: cell-based; conditions: SK-MEL-28 melanoma cells, 24 hours with compound, resazurin; concentration not given
Method in brief: as §1

[1] = tested on: 60 different human tumor cell lines; assay: NCI Development Therapeutics Program 60 cell line screen, one dose; assay type: cell-based

C[C@]12CCc3sc(Nc4ccc(F)cc4F)nc3C1=CC[C@@H]1[C@@H]2CC[C@]2(C)C(=O)CC[C@@H]12 [IIa.10, (1S,2R,13R,14S,18S)-7-(2,4-difluoroanilino)-2,18-dimethyl-6-thia-8-azapentacyclo[11.7.0.02,10.05,9.014,18]icosa-5(9),7,10-trien-17-one]
Growth Percent (SF-539): 49.60%
GI50 (SR): 2900 nM
CC50 (SR; read-out: LC50): > 100000 nM
SK-MEL-25 (% inhibition) (SK-MEL-25): 34%
SK-MEL-28 (% inhibition) (SK-MEL-28): 14%
Growth Percent ([1]; Breast Cancer, BT-549): 59.58%
Growth Percent ([1]; Breast Cancer, HS 578T): 55.28%
Growth Percent ([1]; Breast Cancer, MCF7): 14.62%
Growth Percent ([1]; Breast Cancer, MDA-MB-231/ATCC): 76.10%
Growth Percent ([1]; Breast Cancer, MDA-MB-468): 23.25%
Growth Percent ([1]; Breast Cancer, T-47D): 48.94%
Growth Percent ([1]; CNS Cancer, SF-268): 70.67%
Growth Percent ([1]; CNS Cancer, SNB-19): 74.13%
Growth Percent ([1]; CNS Cancer, SNB-75): 69.43%
Growth Percent ([1]; CNS Cancer, U251): 40.73%
Growth Percent ([1]; Colon Cancer, COLO 205): 54.33%
Growth Percent ([1]; Colon Cancer, HCC-2998): 71.64%
Growth Percent ([1]; Colon Cancer, HCT-116): −23.35%
Growth Percent ([1]; Colon Cancer, HT29): 30.06%
Growth Percent ([1]; Colon Cancer, KM12): 57.14%
Growth Percent ([1]; Colon Cancer, SW-620): 7.16%
Growth Percent ([1]; Leukemia, CCRF-CEM): 10.07%
Growth Percent ([1]; Leukemia, HL-60(TB)): 21.35%
Growth Percent ([1]; Leukemia, K-562): 2.15%
Growth Percent ([1]; Leukemia, MOLT-4): 3.63%
Growth Percent ([1]; Leukemia, RPMI-8226): −20.85%
Growth Percent ([1]; Leukemia, SR): .71%
Growth Percent ([1]; Melanoma, LOX IMVI): −49.65%
Growth Percent ([1]; Melanoma, M14): 57.76%
Growth Percent ([1]; Melanoma, MALME-3M): 69.51%
Growth Percent ([1]; Melanoma, MDA-MB-435): 51.52%
Growth Percent ([1]; Melanoma, SK-MEL-2): 76.42%
Growth Percent ([1]; Melanoma, SK-MEL-5): 76.86%
Growth Percent ([1]; Melanoma, SK-MEL-28): 84.36%
Growth Percent ([1]; Melanoma, UACC-62): 67.65%
Growth Percent ([1]; Melanoma, UACC-257): 71.94%
Growth Percent ([1]; Non-small Cell Lung Cancer, A549/ATCC): 61.70%
Growth Percent ([1]; Non-small Cell Lung Cancer, EKVX): 78.36%
Growth Percent ([1]; Non-small Cell Lung Cancer, HOP-62): 87.08%
Growth Percent ([1]; Non-small Cell Lung Cancer, HOP-92): 77.08%
Growth Percent ([1]; Non-small Cell Lung Cancer, NCI-H23): 66.21%
Growth Percent ([1]; Non-small Cell Lung Cancer, NCI-H226): 84.23%
Growth Percent ([1]; Non-small Cell Lung Cancer, NCI-H322M): 84.48%
Growth Percent ([1]; Non-small Cell Lung Cancer, NCI-H460): 60.86%
Growth Percent ([1]; Ovarian Cancer, IGROV1): 62.11%
Growth Percent ([1]; Ovarian Cancer, NCI/ADR-RES): 67.57%
Growth Percent ([1]; Ovarian Cancer, OVCAR-3): −4.15%
Growth Percent ([1]; Ovarian Cancer, OVCAR-4): 66.68%
Growth Percent ([1]; Ovarian Cancer, OVCAR-5): 91.77%
Growth Percent ([1]; Ovarian Cancer, OVCAR-8): 45.20%
Growth Percent ([1]; Ovarian Cancer, SK-OV-3): 84.10%
Growth Percent ([1]; Prostate Cancer, DU-145): 24.05%
Growth Percent ([1]; Prostate Cancer, PC-3): 52.88%
Growth Percent ([1]; Renal Cancer, 786-0): −27.72%
Growth Percent ([1]; Renal Cancer, A498): 77.80%
Growth Percent ([1]; Renal Cancer, ACHN): 37.67%
Growth Percent ([1]; Renal Cancer, CAKI-1): 38.44%
Growth Percent ([1]; Renal Cancer, RXF 393): 5.60%
Growth Percent ([1]; Renal Cancer, SN12C): 64.13%
Growth Percent ([1]; Renal Cancer, TK-10): 50.24%
Growth Percent ([1]; Renal Cancer, UO-31): 42.87%
